Assay results as given in patent US20240252677A1, “ONE-COMPONENT DELIVERY SYSTEM FOR NUCLEIC ACIDS” (The Trustees of the University of Pennsylvania, priority 2021, published 2024).

Key:
[1] = system: lung; assay: In vivo mRNA delivery, IVIS imaging of organs: lung; parameters: species or system mice; key to Organs with luminescence: lung: strong: Strong meant the luminescence intensity in that organ was relatively high, compared to other organs; weak: Weak meant the luminescence intensity in that organ was relatively low, compared to other organs; conditions: Table 17; mice, IVIS, 4-6 h after injection; intensity relative to other organs
[2] = Dimensions (size, PDI) of DNPs co-assembled from IAJDs and Luc-mRNA by DLS; type: physicochemical
How it was run: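 Hydrodynamic size and PDI were read by dynamic light scattering at 23 °C, 175° backscatter, 633 nm. Particles formed by fast injection of ethanolic IAJD stock (80 mg/mL) into nucleoside-modified luciferase mRNA (stock 4.0 mg/mL) in 10 mM acetate pH 4.0, 5 s vortex.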

[3] = system: BALB/c mice; assay: In vivo mRNA delivery in mice with DNPs, whole-body bioluminescence imaging (IVIS)
[4] = Stability of DNPs by DLS after storage at 5° C.; type: physicochemical; parameters: key to Original size distribution type (DLS curve) / Size distribution type (DLS curve): U: DLS curve showed unimodal size distribution; B: DLS curve showed bimodal size distribution; M: DLS curve showed multimodal size distribution; conditions: for pH Sample: DNPs: IAJD 4.0 mg/mL + Luc-mRNA 0.1 mg/mL, injection in acetate buffer pH 4.00; for PDI / Size (d, nm) / Original size distribution type (DLS curve): IAJD 4.0 mg/mL + Luc-mRNA 0.1 mg/mL; for PDI / Size (d, nm): acetate buffer; for Original size distribution type (DLS curve): before storage, acetate buffer pH 4.00
How it was run: (§1)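 DNPs in acetate buffer sized by DLS after storage at 5 °C. Stability ranked Excellent, Good or Not stable according to retention, shrinkage or growth of original size and narrowing or broadening of size distribution.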

[5] = Stability of DNPs by DLS after storage at 5° C.; type: physicochemical; parameters: key: Excellent: the original sizes and distribution types remained almost the same after storage; Good: the original sizes and distribution types changed slightly (size difference was less than 100 nm) or the original size remained almost the same but the DLS curve showed more size distributions after storage
How it was run: as §1

[6] = system: liver; assay: In vivo mRNA delivery, IVIS imaging of organs: liver; parameters: species or system mice; key to Organs with luminescence: liver: strong: Strong meant the luminescence intensity in that organ was relatively high, compared to other organs; weak: Weak meant the luminescence intensity in that organ was relatively low, compared to other organs; conditions: Table 17; mice, IVIS, 4-6 h after injection; intensity relative to other organs
[7] = Table 16, DNPs from IAJD 4 mg/mL and Luc-mRNA 0.10 mg/mL by injection in acetate buffer (10 mM, pH 4.0)
[8] = Table 17, DNPs used in vivo, IAJD 4 mg/mL, Luc-mRNA 0.10 mg/mL, acetate pH 4.0
[9] = Table 20, nonsymmetric IAJDs and MC3-Luc-mRNA

Structure (SMILES) | PDI [2, 7] | Size (d, nm) [2, 7] | PDI [2, 8] | Size (d, nm) [2, 8] | pH Sample [4] | Size distribution type (DLS curve) ([4]; after 19 days at 5° C.) | PDI ([4]; after 19 days at 5° C.) | Size (d, nm) ([4]; after 19 days at 5° C.) | Original size distribution type (DLS curve) [4] | Ranking of stability ([5]; after 19 days at 5° C.) | Size distribution type (DLS curve) ([4]; after 35 days at 5° C.) | PDI ([4]; after 35 days at 5° C.) | Size (d, nm) ([4]; after 35 days at 5° C.) | Ranking of stability ([5]; after 35 days at 5° C.) | Size distribution type (DLS curve) ([4]; after 21 days at 5° C.) | PDI ([4]; after 21 days at 5° C.) | Organs with luminescence: lung [1] | In vivo activity (total flux, p/s) ([3]; Table 19, nonsymmetric IAJDs) | Organs with luminescence: liver [6] | In vivo activity (total flux, p/s) [3, 9] | other results
CCCCCCCCCCCCCCCCOc1cc(COC(=O)CCCN2CCN(C)CC2)cc(OCCCCCCCCCCCCCCC)c1 [IAJD 149, 3-(Hexadecyloxy)-5-(pentadecyloxy)benzyl 4-(4-methylpiperazin-1-yl)butanoate] | 0.304 | 193 nm | 0.304 | 193 nm | 4.50 | (B) | 0.291 | 193 nm | (B) | Excellent |  |  |  |  |  |  | Lung (weak), | 2.26 × 10^7 p/s | liver (weak), |  | 
CCCCCCCCCCCCCCCCOc1cc(COC(=O)CCCN2CCN(CCO)CC2)cc(OCCCCCCCCCCCCCCC)c1 [IAJD 150, 3-(Hexadecyloxy)-5-(pentadecyloxy)benzyl 4-(4-(2-hydroxyethyl)piperazin-1-yl)butanoate] | 0.454 | 285 nm | 0.454 | 285 nm | 4.51 | (U) | 0.314 | 308 nm | (B) | Excellent |  |  |  |  |  |  | Lung (weak), | 3.47 × 10^7 p/s | liver (weak), |  | 
CCCCCCCCCCCCCCCCCOc1cc(COC(=O)CCCN2CCN(C)CC2)cc(OCCCCCCCCCCCCCCC)c1 [IAJD 151, 3-(Heptadecyloxy)-5-(pentadecyloxy)benzyl 4-(4-methylpiperazin-1-yl)butanoate] | 0.216 | 287 nm | 0.216 | 287 nm | 4.57 |  |  |  | (U) |  | (U) | 0.240 | 271 nm | Excellent |  |  | Lung (weak), | 3.12 × 10^7 p/s | liver (weak), |  | 
CCCCCCCCCCCCCCCCCCOc1cc(COC(=O)CCCN2CCN(C)CC2)cc(OCCCCCCCCCCCCCCC)c1 [IAJD 153, 3-(Octadecyloxy)-5-(pentadecyloxy)benzyl 4-(4-methylpiperazin-1-yl)butanoate] | 0.238 | 232 nm | 0.238 | 232 nm | 4.52 |  |  |  | (U) |  | (U) | 0.232 | 222 nm | Excellent |  |  | Lung (weak), | 7.33 × 10^7 p/s | liver (strong), | 7.33 × 10^7 p/s | 
CCCCCCCCCCCCCCCCCCOc1cc(COC(=O)CCCN2CCN(CCO)CC2)cc(OCCCCCCCCCCCCCCC)c1 [IAJD 154, 3-(Octadecyloxy)-5-(pentadecyloxy)benzyl 4-(4-(2-hydroxyethyl)piperazin-1-yl)butanoate] | 0.407 | 429 nm | 0.407 | 429 nm | 4.47 |  |  |  | (B) |  | (B) | 0.471 | 372 nm | Excellent |  |  | Lung (weak), | 2.39 × 10^7 p/s | liver (weak), | 2.39 × 10^7 p/s | 
CCCCCCCCCCCCCOc1cc(COC(=O)CCCN2CCN(CCO)CC2)cc(OCC(CC)CCCC)c1 (centres unmarked) [IAJD 162, 3-((2-Ethylhexyl)oxy)-5-(tridecyloxy)benzyl 4-(4-(2-hydroxyethyl)piperazin-1-yl)butanoate] | 0.301 | 191 nm | 0.301 | 191 nm | 4.66 |  |  |  | (B) |  |  |  |  |  | (B) | 0.291 | Lung (weak), | 2.03 × 10^8 p/s | liver (weak), | 2.03 × 10^8 p/s | Size (d, nm) ([4]; after 21 days at 5° C.): 182 nm; Ranking of stability ([5]; after 21 days at 5° C.): Excellent
CCCCCCCCCCCCCCOc1cc(COC(=O)CCCN2CCN(C)CC2)cc(OCCCCCCCCCCCCC)c1 [IAJD 171, 3-(Tetradecyloxy)-5-(tridecyloxy)benzyl 4-(4-methylpiperazin-1-yl)butanoate] | 0.268 | 174 nm | 0.268 | 174 nm | 4.88 |  |  |  | (U) |  |  |  |  |  | (U) | 0.277 | Lung (weak), | 7.68 × 10^7 p/s | liver (strong), | 7.68 × 10^7 p/s | Size (d, nm) ([4]; after 21 days at 5° C.): 175 nm; Ranking of stability ([5]; after 21 days at 5° C.): Excellent

Second part, led by results:

PDI [2, 7] | Size (d, nm) [2, 7] | PDI [2, 8] | Size (d, nm) [2, 8] | pH Sample [4] | Size distribution type (DLS curve) ([4]; after 19 days at 5° C.) | PDI ([4]; after 19 days at 5° C.) | Size (d, nm) ([4]; after 19 days at 5° C.) | Original size distribution type (DLS curve) [4] | Ranking of stability ([5]; after 19 days at 5° C.) | Size distribution type (DLS curve) ([4]; after 35 days at 5° C.) | PDI ([4]; after 35 days at 5° C.) | Size (d, nm) ([4]; after 35 days at 5° C.) | Ranking of stability ([5]; after 35 days at 5° C.) | Size distribution type (DLS curve) ([4]; after 21 days at 5° C.) | PDI ([4]; after 21 days at 5° C.) | Structure (SMILES) | Organs with luminescence: lung [1] | In vivo activity (total flux, p/s) ([3]; Table 19, nonsymmetric IAJDs) | Organs with luminescence: liver [6] | In vivo activity (total flux, p/s) [3, 9] | other results
0.287 | 144 nm | 0.287 | 144 nm | 4.50 | (U) | 0.283 | 145 nm | (U) | Excellent |  |  |  |  |  |  | CCCCCCCCCCCCCCCOc1cc(COC(=O)CCCN2CCN(C)CC2)cc(OCCCCCCCCCCCCCC)c1 [IAJD 147, 3-(Pentadecyloxy)-5-(tetradecyloxy)benzyl 4-(4-methylpiperazin-1-yl)butanoate] | Lung (weak), | 9.24 × 10^6 p/s | liver (weak), |  | 
0.339 | 363 nm | 0.339 | 363 nm | 4.46 | (B) | 0.374 | 405 nm | (U) | Good |  |  |  |  |  |  | CCCCCCCCCCCCCCCOc1cc(COC(=O)CCCN2CCN(CCO)CC2)cc(OCCCCCCCCCCCCCC)c1 [IAJD 148, 3-(Pentadecyloxy)-5-(tetradecyloxy)benzyl 4-(4-(2-hydroxyethyl)piperazin-1-yl)butanoate] | Lung (weak), | 6.33 × 10^7 p/s | liver (weak), |  | 
0.235 | 129 nm | 0.235 | 129 nm | 4.97 |  |  |  | (U) |  |  |  |  |  | (U) | 0.226 | CCCCCCCCCCCCCOc1cc(COC(=O)CCCN2CCN(C)CC2)cc(OCC(CC)CCCC)c1 (centres unmarked) [IAJD 161, 3-((2-Ethylhexyl)oxy)-5-(tridecyloxy)benzyl 4-(4-methylpiperazin-1-yl)butanoate] | Lung (weak), | 8.48 × 10^7 p/s | liver (strong), |  | Size (d, nm) ([4]; after 21 days at 5° C.): 125 nm; Ranking of stability ([5]; after 21 days at 5° C.): Excellent
